{
  "source": "ChEMBL document CHEMBL1157712",
  "about": "“Hit to lead account of the discovery of bisbenzamide and related ureidobenzamide inhibitors of Rho kinase” (J Med Chem, 2010)",
  "key": {"[1]": {"molecular_target": "Eukaryotic elongation factor 2 kinase (Homo sapiens) (UniProt O00418)", "sequence (O00418 whole entry)": "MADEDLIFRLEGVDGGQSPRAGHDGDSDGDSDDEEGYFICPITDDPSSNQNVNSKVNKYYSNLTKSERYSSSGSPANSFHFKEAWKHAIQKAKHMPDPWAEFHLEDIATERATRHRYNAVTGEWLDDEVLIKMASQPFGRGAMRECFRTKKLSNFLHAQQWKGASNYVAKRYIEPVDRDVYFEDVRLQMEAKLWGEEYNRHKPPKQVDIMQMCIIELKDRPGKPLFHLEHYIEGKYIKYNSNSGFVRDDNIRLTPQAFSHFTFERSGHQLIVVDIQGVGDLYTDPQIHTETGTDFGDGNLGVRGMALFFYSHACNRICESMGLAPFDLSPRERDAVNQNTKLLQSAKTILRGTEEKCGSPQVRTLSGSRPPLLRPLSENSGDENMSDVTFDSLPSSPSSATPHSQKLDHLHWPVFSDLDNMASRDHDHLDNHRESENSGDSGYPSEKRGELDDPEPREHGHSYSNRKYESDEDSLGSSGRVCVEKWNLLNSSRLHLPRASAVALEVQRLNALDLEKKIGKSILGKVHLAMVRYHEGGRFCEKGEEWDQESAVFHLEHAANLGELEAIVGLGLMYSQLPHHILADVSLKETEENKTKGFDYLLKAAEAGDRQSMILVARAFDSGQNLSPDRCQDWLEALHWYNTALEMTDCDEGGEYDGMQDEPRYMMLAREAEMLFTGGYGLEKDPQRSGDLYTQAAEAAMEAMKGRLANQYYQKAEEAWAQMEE", "conditions": "3 to 6 uM", "description": "Inhibition of EF2K at 3 to 6 uM relative to control"}, "[2]": {"molecular_target": "Serine/threonine-protein kinase pim-2 (Homo sapiens, UniProt Q9P1W9)", "assay": "Inhibition of PIM2"}, "Cytochrome P450 2C19": {"molecular_target": "Cytochrome P450 2C19 (Homo sapiens, UniProt P33261)", "sequence (P33261 whole entry)": "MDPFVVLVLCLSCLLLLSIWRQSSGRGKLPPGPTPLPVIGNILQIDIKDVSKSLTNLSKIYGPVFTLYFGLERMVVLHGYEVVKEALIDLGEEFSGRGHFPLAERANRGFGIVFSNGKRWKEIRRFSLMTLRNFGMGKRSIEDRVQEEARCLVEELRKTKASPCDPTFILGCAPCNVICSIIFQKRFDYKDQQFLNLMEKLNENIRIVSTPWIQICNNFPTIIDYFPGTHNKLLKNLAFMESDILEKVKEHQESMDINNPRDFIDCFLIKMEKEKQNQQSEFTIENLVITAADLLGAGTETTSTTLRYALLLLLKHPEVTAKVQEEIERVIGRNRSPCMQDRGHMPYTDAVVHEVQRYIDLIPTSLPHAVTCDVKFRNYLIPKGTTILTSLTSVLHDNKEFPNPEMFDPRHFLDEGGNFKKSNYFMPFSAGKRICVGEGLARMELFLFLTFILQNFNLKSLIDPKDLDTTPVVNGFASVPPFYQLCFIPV", "assay": "Inhibition of human CYP2C19 by fluorescence assay", "type": "ADME"}, "[3]": {"molecular_target": "Serine/threonine-protein kinase 26 (Homo sapiens, UniProt Q9P289)", "assay": "Inhibition of MST4"}, "Cytochrome P450 1A2": {"molecular_target": "T1, Cytochrome P450 1A2 (Homo sapiens, UniProt P05177)", "T1 sequence (P05177 whole entry)": "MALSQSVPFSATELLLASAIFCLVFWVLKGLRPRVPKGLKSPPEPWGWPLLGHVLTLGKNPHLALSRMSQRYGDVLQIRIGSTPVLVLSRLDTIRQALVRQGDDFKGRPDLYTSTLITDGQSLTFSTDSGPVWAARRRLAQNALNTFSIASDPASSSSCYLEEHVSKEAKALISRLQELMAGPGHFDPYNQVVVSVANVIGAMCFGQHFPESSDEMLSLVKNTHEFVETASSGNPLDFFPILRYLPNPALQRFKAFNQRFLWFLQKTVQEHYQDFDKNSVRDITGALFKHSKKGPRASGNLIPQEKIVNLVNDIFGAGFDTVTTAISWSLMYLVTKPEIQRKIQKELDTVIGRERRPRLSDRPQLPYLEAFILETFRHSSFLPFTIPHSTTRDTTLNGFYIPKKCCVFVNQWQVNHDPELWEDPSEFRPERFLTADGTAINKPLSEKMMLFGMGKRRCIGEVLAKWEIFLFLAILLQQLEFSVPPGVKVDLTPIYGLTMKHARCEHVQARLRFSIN", "assay": "Inhibition of human CYP1A2 by fluorescence assay", "type": "ADME"}, "[4]": {"molecular_target": "Mitogen-activated protein kinase 10 (Homo sapiens) (UniProt P53779)", "sequence (P53779 whole entry)": "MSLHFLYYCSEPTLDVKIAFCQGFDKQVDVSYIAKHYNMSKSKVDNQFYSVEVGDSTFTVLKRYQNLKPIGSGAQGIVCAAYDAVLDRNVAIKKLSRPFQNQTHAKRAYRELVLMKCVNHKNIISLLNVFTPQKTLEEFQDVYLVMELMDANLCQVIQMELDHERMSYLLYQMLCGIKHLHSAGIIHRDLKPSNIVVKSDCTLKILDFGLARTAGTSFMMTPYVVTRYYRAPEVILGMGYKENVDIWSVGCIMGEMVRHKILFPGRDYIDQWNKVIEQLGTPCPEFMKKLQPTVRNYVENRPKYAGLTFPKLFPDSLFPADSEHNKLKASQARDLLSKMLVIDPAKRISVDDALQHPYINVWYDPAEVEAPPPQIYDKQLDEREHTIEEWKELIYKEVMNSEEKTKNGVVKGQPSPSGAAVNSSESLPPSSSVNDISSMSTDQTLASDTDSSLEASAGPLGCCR", "conditions": "3 to 6 uM", "description": "Inhibition of JNK3a1 at 3 to 6 uM relative to control"}, "[5]": {"molecular_target": "Tyrosine-protein kinase JAK3 (Homo sapiens) (UniProt P52333)", "conditions": "3 to 6 uM", "description": "Inhibition of JAK3 at 3 to 6 uM relative to control"}, "Caspase-1 (Homo sapiens)": {"molecular_target": "Caspase-1 (Homo sapiens) (UniProt P29466)", "conditions": "3 to 6 uM", "description": "Inhibition of ICE at 3 to 6 uM relative to control"}, "[6]": {"molecular_target": "Serine/threonine-protein kinase Nek2 (Homo sapiens) (UniProt P51955)", "sequence (P51955 whole entry)": "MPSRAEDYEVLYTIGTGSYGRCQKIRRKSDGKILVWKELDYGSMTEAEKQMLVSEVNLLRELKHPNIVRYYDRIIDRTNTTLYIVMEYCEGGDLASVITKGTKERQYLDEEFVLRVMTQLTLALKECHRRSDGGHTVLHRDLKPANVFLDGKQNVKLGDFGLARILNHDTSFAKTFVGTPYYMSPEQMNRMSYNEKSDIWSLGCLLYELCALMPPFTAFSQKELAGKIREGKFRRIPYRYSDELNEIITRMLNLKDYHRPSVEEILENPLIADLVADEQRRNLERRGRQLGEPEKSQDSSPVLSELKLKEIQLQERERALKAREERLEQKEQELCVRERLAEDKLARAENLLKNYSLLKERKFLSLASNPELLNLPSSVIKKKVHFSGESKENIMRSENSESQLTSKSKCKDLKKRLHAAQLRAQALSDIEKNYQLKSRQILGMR", "conditions": "3 to 6 uM", "description": "Inhibition of NEK2a at 3 to 6 uM relative to control"}, "Focal adhesion kinase 1": {"molecular_target": "Focal adhesion kinase 1 (Homo sapiens, UniProt Q05397)", "sequence (Q05397 whole entry)": "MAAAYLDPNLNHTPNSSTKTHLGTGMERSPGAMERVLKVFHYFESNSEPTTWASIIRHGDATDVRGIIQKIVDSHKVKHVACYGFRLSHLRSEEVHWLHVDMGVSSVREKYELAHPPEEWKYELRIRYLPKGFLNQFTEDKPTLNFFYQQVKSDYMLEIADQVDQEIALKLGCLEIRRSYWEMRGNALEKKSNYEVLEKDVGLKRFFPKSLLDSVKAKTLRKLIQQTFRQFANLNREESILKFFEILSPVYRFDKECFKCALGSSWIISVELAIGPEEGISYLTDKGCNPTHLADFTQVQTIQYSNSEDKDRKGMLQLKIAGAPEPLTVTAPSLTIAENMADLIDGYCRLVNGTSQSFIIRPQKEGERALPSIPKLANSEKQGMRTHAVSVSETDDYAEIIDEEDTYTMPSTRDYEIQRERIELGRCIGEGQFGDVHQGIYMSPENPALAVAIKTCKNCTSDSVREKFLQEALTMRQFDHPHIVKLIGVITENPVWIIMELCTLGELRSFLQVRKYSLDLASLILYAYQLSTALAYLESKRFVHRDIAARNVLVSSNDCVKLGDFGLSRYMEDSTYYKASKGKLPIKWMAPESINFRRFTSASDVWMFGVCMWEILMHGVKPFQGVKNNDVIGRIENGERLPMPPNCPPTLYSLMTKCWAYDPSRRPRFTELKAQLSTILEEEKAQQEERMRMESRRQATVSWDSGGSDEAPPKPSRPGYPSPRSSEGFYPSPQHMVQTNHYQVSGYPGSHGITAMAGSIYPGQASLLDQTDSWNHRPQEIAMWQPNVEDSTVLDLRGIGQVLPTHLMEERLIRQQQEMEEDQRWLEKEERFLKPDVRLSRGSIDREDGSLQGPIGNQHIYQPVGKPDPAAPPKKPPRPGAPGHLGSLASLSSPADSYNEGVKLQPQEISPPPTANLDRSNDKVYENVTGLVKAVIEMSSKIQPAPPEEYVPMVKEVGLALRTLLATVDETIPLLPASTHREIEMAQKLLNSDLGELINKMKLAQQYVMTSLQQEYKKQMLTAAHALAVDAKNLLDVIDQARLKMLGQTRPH", "assay": "Inhibition of PTK2"}, "[7]": {"molecular_target": "Cyclin-dependent kinase 2 (Homo sapiens) (UniProt P24941)", "conditions": "3 to 6 uM", "description": "Inhibition of CDK2 at 3 to 6 uM relative to control"}, "[8]": {"molecular_target": "Ribosomal protein S6 kinase alpha-5 (Homo sapiens) (UniProt O75582)", "sequence (O75582 whole entry, looked up)": "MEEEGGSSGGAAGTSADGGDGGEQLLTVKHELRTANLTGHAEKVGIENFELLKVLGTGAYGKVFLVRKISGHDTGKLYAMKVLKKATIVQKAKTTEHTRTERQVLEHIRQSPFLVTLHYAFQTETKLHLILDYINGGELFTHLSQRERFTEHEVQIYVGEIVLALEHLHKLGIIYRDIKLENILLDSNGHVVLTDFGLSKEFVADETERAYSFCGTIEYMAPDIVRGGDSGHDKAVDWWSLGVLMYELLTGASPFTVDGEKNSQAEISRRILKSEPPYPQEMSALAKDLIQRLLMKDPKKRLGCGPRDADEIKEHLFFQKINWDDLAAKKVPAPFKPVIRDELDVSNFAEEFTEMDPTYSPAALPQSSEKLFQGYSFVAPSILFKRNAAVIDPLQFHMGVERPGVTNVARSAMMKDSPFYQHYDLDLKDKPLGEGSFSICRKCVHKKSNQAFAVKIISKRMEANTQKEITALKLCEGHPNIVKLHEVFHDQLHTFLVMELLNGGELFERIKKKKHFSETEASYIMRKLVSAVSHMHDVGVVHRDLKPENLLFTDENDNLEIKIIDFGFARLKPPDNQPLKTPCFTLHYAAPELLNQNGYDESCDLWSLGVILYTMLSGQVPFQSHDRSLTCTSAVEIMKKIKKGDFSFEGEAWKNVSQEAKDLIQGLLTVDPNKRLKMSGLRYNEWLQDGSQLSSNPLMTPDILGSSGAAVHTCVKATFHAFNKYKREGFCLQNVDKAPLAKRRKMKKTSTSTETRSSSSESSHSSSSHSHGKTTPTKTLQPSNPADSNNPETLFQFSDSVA", "conditions": "3 to 6 uM", "description": "Inhibition of MSK1 at 3 to 6 uM relative to control"}, "[9]": {"molecular_target": "Vascular endothelial growth factor receptor 1 (Homo sapiens, UniProt P17948)", "assay": "Inhibition of VEGFR1"}, "[10]": {"molecular_target": "Epithelial discoidin domain-containing receptor 1 (Homo sapiens) (UniProt Q08345)", "conditions": "3 to 6 uM", "description": "Inhibition of DDR1 at 3 to 6 uM relative to control"}, "[11]": {"molecular_target": "Serine/threonine-protein kinase Sgk1 (Homo sapiens) (UniProt O00141)", "conditions": "3 to 6 uM", "description": "Inhibition of SGK at 3 to 6 uM relative to control"}, "Cytochrome P450 2D6": {"molecular_target": "Cytochrome P450 2D6 (Homo sapiens, UniProt P10635)", "assay": "Inhibition of human CYP2D6 by fluorescence assay", "type": "ADME"}, "[12]": {"assay": "Membrane permeability by PAMPA assay", "type": "ADME", "conditions": "read-out: permeability"}, "[13]": {"molecular_target": "Mitogen-activated protein kinase 8 (Homo sapiens) (UniProt P45983)", "sequence (P45983 whole entry)": "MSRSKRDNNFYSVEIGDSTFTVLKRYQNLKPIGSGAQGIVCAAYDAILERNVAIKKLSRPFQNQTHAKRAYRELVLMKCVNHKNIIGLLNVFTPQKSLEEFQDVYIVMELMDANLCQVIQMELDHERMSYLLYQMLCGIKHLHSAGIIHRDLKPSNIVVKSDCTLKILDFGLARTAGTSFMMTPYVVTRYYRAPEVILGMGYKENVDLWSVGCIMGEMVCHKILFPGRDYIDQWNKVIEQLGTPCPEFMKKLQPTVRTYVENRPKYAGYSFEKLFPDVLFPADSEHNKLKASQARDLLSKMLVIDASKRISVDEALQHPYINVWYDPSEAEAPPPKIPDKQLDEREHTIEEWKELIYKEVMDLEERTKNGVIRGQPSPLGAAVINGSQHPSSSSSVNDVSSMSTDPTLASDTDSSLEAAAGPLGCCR", "conditions": "3 to 6 uM", "description": "Inhibition of JNK1a1 at 3 to 6 uM relative to control"}, "[14]": {"molecular_target": "Serine/threonine-protein kinase Chk2 (Homo sapiens) (UniProt O96017)", "assay": "Inhibition of CHK2 at 3 uM relative to control; values are per cent of control"}, "[15]": {"molecular_target": "Calcium/calmodulin-dependent protein kinase type 1 (Homo sapiens) (UniProt Q14012)", "sequence (Q14012 whole entry, looked up)": "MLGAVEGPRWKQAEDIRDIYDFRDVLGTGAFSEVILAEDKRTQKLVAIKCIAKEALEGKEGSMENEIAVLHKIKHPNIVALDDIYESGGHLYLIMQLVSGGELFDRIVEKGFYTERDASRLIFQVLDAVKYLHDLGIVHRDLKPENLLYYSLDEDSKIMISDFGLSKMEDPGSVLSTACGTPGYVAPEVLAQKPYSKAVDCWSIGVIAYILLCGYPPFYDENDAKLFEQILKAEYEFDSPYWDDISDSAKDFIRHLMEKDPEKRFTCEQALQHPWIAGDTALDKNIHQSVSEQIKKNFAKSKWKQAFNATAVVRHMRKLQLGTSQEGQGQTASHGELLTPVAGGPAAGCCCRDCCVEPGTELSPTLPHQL", "assay": "Inhibition of CAMK1 at 3 uM relative to control; values are per cent of control"}, "[16]": {"molecular_target": "Mitogen-activated protein kinase 10 (Homo sapiens) (UniProt P53779)", "assay": "Inhibition of JNK3a1 at 3 uM relative to control; values are per cent of control"}, "[17]": {"molecular_target": "[Pyruvate dehydrogenase (acetyl-transferring)] kinase isozyme 1, mitochondrial (Homo sapiens) (UniProt Q15118)", "assay": "Inhibition of PDK1 at 3 uM relative to control; values are per cent of control"}, "[18]": {"molecular_target": "Serine/threonine-protein kinase MRCK beta (Homo sapiens) (UniProt Q9Y5S2)", "assay": "Inhibition of CDC42BPB"}, "[19]": {"assay": "Inhibition of PKA at 3 uM relative to control; values are per cent of control"}, "[20]": {"assay": "Inhibition of PKBD at 3 uM relative to control; values are per cent of control"}, "[21]": {"molecular_target": "Ribosomal protein S6 kinase alpha-3 (Homo sapiens) (UniProt P51812)", "assay": "Inhibition of MAPKAPK1b at 3 uM relative to control; values are per cent of control"}, "[22]": {"molecular_target": "Myosin light chain kinase, smooth muscle (Homo sapiens) (UniProt Q15746)", "assay": "Inhibition of SMMLCK at 3 uM relative to control; values are per cent of control"}, "[23]": {"molecular_target": "Protein kinase C alpha type (Homo sapiens) (UniProt P17252)", "assay": "Inhibition of PKCalpha", "conditions": "values are per cent of control"}, "[24]": {"molecular_target": "Serine/threonine-protein kinase Nek2 (Homo sapiens) (UniProt P51955)", "assay": "Inhibition of NEK2a at 3 uM relative to control; values are per cent of control"}, "[25]": {"molecular_target": "Lymphokine-activated killer T-cell-originated protein kinase (Homo sapiens) (UniProt Q96KB5)", "assay": "Inhibition of PBK at 3 uM relative to control; values are per cent of control"}, "[26]": {"molecular_target": "Proto-oncogene tyrosine-protein kinase Src (Homo sapiens) (UniProt P12931)", "assay": "Inhibition of SRC at 3 uM relative to control; values are per cent of control"}, "[27]": {"molecular_target": "Aurora kinase B (Homo sapiens) (UniProt Q96GD4)", "assay": "Inhibition of Aurora B at 3 uM relative to control; values are per cent of control"}, "[28]": {"molecular_target": "MAP kinase-interacting serine/threonine-protein kinase 2 (Homo sapiens) (UniProt Q9HBH9)", "assay": "Inhibition of MNK2 at 3 uM relative to control; values are per cent of control"}, "[29]": {"molecular_target": "Tyrosine-protein kinase CSK (Homo sapiens) (UniProt P41240)", "assay": "Inhibition of CSK at 3 uM relative to control; values are per cent of control"}},
  "data": [
    {"smiles": "COc1ccc(C(=O)NCc2cccc(C(=O)Nc3ccc4c(c3)CNCC4)c2)cc1OC", "values": [
      {"measurement": "residual activity", "setting": "[1]", "result": "> 50", "unit": "%"},
      {"measurement": "IC50", "setting": "[2]", "result": "> 10", "unit": "µM"},
      {"measurement": "IC50", "setting": "Cytochrome P450 2C19", "result": "> 30", "unit": "µM"},
      {"measurement": "IC50", "setting": "[3]", "result": "> 10", "unit": "µM"},
      {"measurement": "IC50", "setting": "Cytochrome P450 1A2", "result": "> 30", "unit": "µM"},
      {"measurement": "residual activity", "setting": "[4]", "result": "> 50", "unit": "%"},
      {"measurement": "residual activity", "setting": "[5]", "result": "> 50", "unit": "%"},
      {"measurement": "residual activity", "setting": "Caspase-1 (Homo sapiens)", "result": "> 50", "unit": "%"},
      {"measurement": "residual activity", "setting": "[6]", "result": "> 50", "unit": "%"},
      {"measurement": "IC50", "setting": "Focal adhesion kinase 1", "result": "> 10", "unit": "µM"},
      {"measurement": "residual activity", "setting": "[7]", "result": "> 50", "unit": "%"},
      {"measurement": "residual activity", "setting": "[8]", "result": "> 50", "unit": "%"},
      {"measurement": "IC50", "setting": "[9]", "result": "> 10", "unit": "µM"},
      {"measurement": "residual activity", "setting": "[10]", "result": "> 50", "unit": "%"},
      {"measurement": "residual activity", "setting": "[11]", "result": "> 50", "unit": "%"},
      {"measurement": "IC50", "setting": "Cytochrome P450 2D6", "result": "> 30", "unit": "µM"},
      {"measurement": "Papp", "setting": "[12]", "result": 3.6, "unit": "×10⁻⁶ cm/s"},
      {"measurement": "residual activity", "setting": "[13]", "result": "> 50", "unit": "%"}
    ]},
    {"smiles": "NC(=O)c1ccc(NC(=O)NCc2cccc(C(=O)Nc3ccc4c(c3)CNCC4)c2)cc1", "values": [
      {"measurement": "residual activity", "setting": "[14]", "result": "> 50", "unit": "%"},
      {"measurement": "residual activity", "setting": "[15]", "result": "> 50", "unit": "%"},
      {"measurement": "residual activity", "setting": "[16]", "result": "> 50", "unit": "%"},
      {"measurement": "residual activity", "setting": "[17]", "result": "> 50", "unit": "%"},
      {"measurement": "IC50", "setting": "[18]", "result": "> 5", "unit": "µM"},
      {"measurement": "residual activity", "setting": "[19]", "result": "> 50", "unit": "%"},
      {"measurement": "residual activity", "setting": "[20]", "result": "> 50", "unit": "%"},
      {"measurement": "residual activity", "setting": "[21]", "result": "> 50", "unit": "%"},
      {"measurement": "residual activity", "setting": "[22]", "result": "> 50", "unit": "%"},
      {"measurement": "residual activity", "setting": "[23]", "result": 50, "unit": "%"},
      {"measurement": "residual activity", "setting": "[24]", "result": "> 50", "unit": "%"},
      {"measurement": "residual activity", "setting": "[25]", "result": "> 50", "unit": "%"},
      {"measurement": "residual activity", "setting": "[26]", "result": "> 50", "unit": "%"},
      {"measurement": "residual activity", "setting": "[27]", "result": "> 50", "unit": "%"},
      {"measurement": "residual activity", "setting": "[28]", "result": "> 50", "unit": "%"},
      {"measurement": "residual activity", "setting": "[29]", "result": "> 50", "unit": "%"}
    ]}
  ]
}
